2 compounds from US20210253518A1, “KINASE INHIBITOR” (NISSAN CHEMICAL CORPORATION, priority 2018, published 2021) can be followed below.

The test system of one assay is YAP-regulated genes. The assay can be described thus: DNA microarray gene expression in SKOV3 cells. In kind it is cell-based, human. The following applies: 10 μM. The procedure:
According to the method of patent document (WO 2014/017513), a composition of McCoy's 5a medium (manufactured by Sigma-Aldrich) containing 0.015% (w/v) deacylated gellan gum (KELCOGEL CG-LA, manufactured by Sansho Co., Ltd.), 30 ng/mL human HB-EGF (manufactured by PEPROTECH), and 15% (v/v) FBS was prepared. Human ovarian cancer cell line SKOV3 cultured according to the protocol recommended by DS Pharma Biomedical Co., Ltd. was suspended in the medium and seeded on a 6 well plate (manufactured by Corning Incorporated, #3471) at 1,000,000 cells/3.3 mL/well. Successively, k-1:B-1 dissolved in DMSO was added to the cell suspension at a final concentration of 10 μM. After further culturing in a CO2 incubator at 37° C. for 6 or 24 hr, 11 mL of phosphate buffered saline (PBS, manufactured by Sigma-Aldrich Japan) was added to the cell culture medium and the cells were precipitated by a centrifugation treatment (400 G, 3 min). The supernatant was removed, the cells were suspended in PBS (10 mL), and further subjected to a centrifugation treatment (400 G, 5 min) to give cell pellets. Successively, total RNA (ribonucleic acid) was isolated from the obtained cells by using RNAeasy Mini Kit (manufactured by Qiagen). DNA microarray of this RNA was performed by HumanGene 2.0ST Array (manufactured by Affymetrix), and changes in the human gene expression due to the addition of the specific compound were comprehensively analyzed (gene analysis contract service of Kurabo Industries Ltd. was used, product number; GA0312).

The subject of assay [1] is colitis model administered with dextran sulfate sodium (DSS). The assay can be described thus: DSS colitis model mouse, length of the large intestine. Type of assay: in vivo. As to conditions: 2.5 w/v % DSS drinking water, 50 mg/kg intraperitoneally every 24 hr, day 8, vs 0.5% MC, FIG. 3. As to the method: Colitis model administered with dextran sulfate sodium (DSS) (manufactured by FUJIFILM Wako Pure Chemical Corporation) was produced as described below. The length of the large intestine is used as a morphological parameter in the evaluation of colitis, and the large intestine shortens according to the degree of inflammation. Therefore, the anti-inflammatory effect of the compound was evaluated by comparing the length of the large intestine.
Compound K-1:J-1 was prepared as a 0.5 w/v % methylcellulose aqueous solution (0.5% MC, manufactured by FUJIFILM Wako Pure Chemical Corporation) at 5 mg/mL and intraperitoneally administered at 50 mg/kg per administration. 0.5% MC was administered to the negative control.
As the mouse, male C57BL/6NCrl, 6-week-old, was purchased from CHARLES RIVER LABORATORIES JAPAN, INC. As drinking water, distilled water or a 2.5 w/v % DSS aqueous solution was freely given. The DSS drinking start date was set as day 1, and the water was given until day 8. Compound K-1:J-1 was intraperitoneally administered at 50 mg/kg every 24 hr from day 1. On day 8, the mouse was dissected, the large intestine was isolated and the length of the large intestine was measured. Conducted in 4 cases in each group.

Assay [2] has as its system full-thickness skin wound. The assay is described as follows: Mouse full-thickness skin wound model. In kind it is in vivo. The following applies: 1 mg/mL, 0.04 mL per wound site every 24 hr until day 12, negative control 854.2±119.2. The procedure:
A full-thickness skin wound in which the skin on the back of a mouse was partially removed was prepared as described below, and the wound therapy promoting effect of the compound was evaluated by comparing the reduction rate of the wound area.
Compound K-1:J-1 was dissolved in a solvent (10% Pluronic F-68, 2% Propylene Glycol, 20 mM Tris buffer (pH 8.5)) at a concentration of 1 mg/mL, and administered by adding dropwise to the wound site (0.04 mL per one wound site). To the negative control, the solvent alone was administered by dropwise addition.
As the mouse, male BKS.Cg-Dock7m+/+Leprdb/J, 7-week-old, was purchased from CHARLES RIVER LABORATORIES JAPAN, INC. After removing the hair on the back, an 8 mm full-thickness skin wound was prepared using biopsy trepan (Kai Corporation) and protected with a coating material (Tegaderm transparent dressing, 3M). The wound preparation date was set as day 1, and 1 mg/mL compound K-1:J-1 was added dropwise at a dose of 0.04 mL per wound site every 24 hr until day 12. The area of the wound site was measured on days 1, 3, 6, 9, 13. The wound area on day 1 was set to 100%, and the total measured area was calculated as a percentage (%) with respect to the wound preparation date. Conducted in 6 cases in each group.

`CC/C(=N\NC(=O)C(C)Nc1ccccc1)c1ccc(O)c(C)c1O` (stereo not shown) [k-1:B-1]: in the assay with YAP-regulated genes (6 hr later), the “AMOTL2 expression rate when no addition is 1” value stood at 6.92, the “ANKRD1 expression rate when no addition is 1” value came out at 35.3, the “BIRC2 expression rate when no addition is 1” value came out at 1.27 and the “CCND1 expression rate when no addition is 1” value stood at 1.63. Also, in the assay with YAP-regulated genes (6 hr later), the “CTGF expression rate when no addition is 1” value stood at 21.4, the “CYR61 expression rate when no addition is 1” value was 29.6 and the “TGFB2 expression rate when no addition is 1” value was 3.63. In addition, in the assay on YAP-regulated genes (24 hr later), the “AMOTL2 expression rate when no addition is 1” value stood at 7.89, the “ANKRD1 expression rate when no addition is 1” value turned out to be 72.1, the “BIRC2 expression rate when no addition is 1” value is 1.44 and the “CCND1 expression rate when no addition is 1” value worked out at 2.01. Also, in the assay on YAP-regulated genes (24 hr later), the “CTGF expression rate when no addition is 1” value is 23.2, the “CYR61 expression rate when no addition is 1” value was determined as 26.9 and the “TGFB2 expression rate when no addition is 1” value was 9.84.

In the case of `CC/C(=N\NC(=O)NCc1cccc(O)c1)c1ccc(O)c(C)c1O` [k-1:J-1], the “length of the large intestine” value in assay [1] is reported as “shortening of the large intestine was suppressed more”. In addition, in assay [2], the “area under the wound area ratio (Area Under the Curve (AUC))” value is 659.6±163.7 %×day.
